Reference: patent US10550113B2, “2-phenyl-3H-imidazo[4,5-B]pyridine derivates useful as inhibitors of mammalian tyrosine kinase ROR1 activity” (Kancera AB, priority 2015, dated 2020)

What was measured:
PBMC from CLL patients = experiment: CellTiter-Blue cell viability assay, cell toxicity in PBMC from CLL patients; format: cell-based; conditions: Homo sapiens, 50 000 cells/well, cultured 24, 48 and 72 h (time of the IC50 not stated), % cytotoxicity vs 0.2% DMSO
Experimental: (§1) Method for Measurement of Cell Toxicity
(§2) The CellTiter-Blue® Cell Viability Assay provides a homogeneous, fluorometric method for estimating the number of viable cells present in multi-well plates. The assay uses the indicator dye resazurin to measure the metabolic capacity of cells. Viable cells retain the ability to reduce resazurin into resorufin, which is highly fluorescent.
(§3) Stock solutions (10 or 100 mM in DMSO) of compounds were serially diluted 1:2 in 11 concentrations and 25 nL/well (100 mM stock) or 50 nL/well (10 mM stock) were acoustically dispensed in assay plates with an EDC acoustic dispenser. Final starting concentration in the assay was 20 μM (0.2% DMSO) or 100 μM (0.1% DMSO) for test compounds.
(§4) Peripheral blood mononuclear cells (PBMC) from CLL patients or healthy volunteers were seeded in assay plates (384-well black/clear, Greiner #781091) pre-dispensed with compounds, 25 μL/well, and cultured for 24, 48 and 72 h. The cell concentration was 50 000 cells/well for PBMC from CLL patients or healthy volunteers. After 24, 48 and 72 h culture, Celltiter Blue reagent was added (5 μL/well) and the plates were incubated for 2 h. The plates were read in an Envision fluorescence reader (PerkinElmer) with Ex544 nm/Em590 nm. Results were calculated as % cytotoxicity compared to background (cells treated with 0.2% DMSO).
(§5) Thus, IC50 values for cell toxicity in PBMC from CLL patients as well as healthy volunteers for some compounds of the invention are shown in Table 3.

[1] = CellTiter-Blue cell viability assay, cell toxicity in PBMC from healthy volunteers; format: cell-based; conditions: human, 50 000 cells/well, cultured 24, 48 and 72 h (time of the IC50 not stated), % cytotoxicity vs 0.2% DMSO
Experimental: as §1, §2, §3, §4, §5

SMILES	IC50 (PBMC from CLL patients) [nM]	IC50 [1] [nM]
CNC(=O)Cc1ccc(-c2nc3c(NC4CCN(C)CC4)c(Cl)cnc3[nH]2)cc1 [Example 232, 2-(4-{6-chloro-7-[(1-methylpiperidin-4-yl)amino]-3H-imidazo[4,5-b]pyridin-2-yl}phenyl)-N-methylacetamide]	570	> 20000
CN1CCC(Nc2c(Br)cnc3[nH]c(-c4ccc(OCC(=O)NC5CCCC5)cc4)nc23)CC1 [Example 259, 2-(4-{6-bromo-7-[(1-methylpiperidin-4-yl)amino]-3H-imidazo[4,5-b]pyridin-2-yl}phenoxy)-N-cyclopentylacetamide]	33	11100
CC(=O)NCCOc1ccc(-c2nc3c(NC4CCN(C)CC4)c(Cl)cnc3[nH]2)cc1 [Example 265, N-[2-(4-{6-chloro-7-[(1-methylpiperidin-4-yl)amino]-3H-imidazo[4,5-b]pyridin-2-yl}phenoxy)ethyl] acetamide]	260	> 20000
CN1CCC(Nc2c(Cl)cnc3[nH]c(-c4ccc(OCCNC(=O)c5ccncc5)cc4)nc23)CC1 [Example 272, N-[2-(4-{6-chloro-7-[(1-methylpiperidin-4-yl)amino]-3H-imidazo[4,5-b]pyridin-2-yl}phenoxy)ethyl]pyridine-4-carboxamide]	250	> 20000
CNC(=O)COc1ccc(-c2nc3c(NC4CCN(Cc5c(C)nn(C)c5C)CC4)c(Br)cnc3[nH]2)cc1 [Example 288, 2-{4-[6-bromo-7-({1-[(1,3,5-trimethyl-1H-pyrazol-4-yl)methyl]piperidin-4-yl}amino)-3H-imidazo[4,5-b]pyridin-2-yl]phenoxy}-N-methylacetamide]	400	> 20000
CNC(=O)CNc1ccc(-c2nc3c(NC4CCN(C)CC4)c(Cl)cnc3[nH]2)cc1 [Example 294, N^2-(4-(6-chloro-7-[(1-methylpiperidin-4-yl)amino]-3H-imidazo[4,5-b]pyridin-2-yl}phenyl)-N-methylglycinamide]	360	> 20000
CNC(=O)CCNc1ccc(-c2nc3c(NC4CCN(C)CC4)c(Cl)cnc3[nH]2)cc1 [Example 302, N^3-(4-{6-chloro-7-[(1-methylpiperidin-4-yl)amino]-3H-imidazo[4,5-b]pyridin-2-yl}phenyl)-N-methyl-b-alaninamide]	620	> 20000
